Reference: patent publication US20020019420A1, “Methods and compositions for treating gastric disorders using optically pure (+)-pantoprazole” (Sepracor Inc., priority 1993, published 2002)
Where two headings read alike, the source gives them in different places.

Experiments:
beta-adrenergic = conditions: L-form versus D-enantiomer; cited from earlier work
[1] = patients with duodenal ulcers, after four weeks of 20 to 80 mg per day; cited from earlier work
[2] = test system: endogenous acid secretion; conditions: pylorus-ligated rats, cited from earlier work
[3] = cited from earlier work
[4] = rats, two year study; cited from earlier work
[5] = humans, short-term administration; cited from earlier work
[6] = test system: hepatic drug metabolizing enzyme systems; conditions: intact rats and rat microsomal enzyme preparations; cited from earlier work
[7] = neutral and moderately acidic conditions; cited from earlier work
[8] = rat, cited from earlier work
[9] = test system: exogenously stimulated acid secretion; conditions: variety of agonists; cited from earlier work
[10] = acute toxicity LD50 in mice; assay type: in vivo
[11] = test system: endogenous acid secretion; test: reduction of endogenous acid secretion in pylorus-ligated rats; assay type: in vivo, rat
From the text: This may increase pantoprazole's selectivity for the acid secreting parietal cells, where low pH conditions exist in the intracellular canaliculi. In intact animals, pantoprazole is active in inhibiting gastric acid secretion in both rats and dogs. Specifically, the intravenous and oral doses required to reduce endogenous acid secretion in pylorus-ligated rats by 50% are in the 1-3 μmole/kg range. […] Racemic pantoprazole is also effective at doses less than 5 μmole/kg in inhibiting exogenously stimulated acid. secretion induced by a variety of agonists, indicating general activity of the drug in inhibiting acid secretion.

[12] = weak acid; cited from earlier work

## CC(C)NC[C@H](O)COc1cccc2ccccc12 [L-form of propranolol, propranolol]
beta-adrenergic
  potency relative to the D-enantiomer: 100 times

## COc1ccnc(C[S+]([O-])c2nc3ccc(OC(F)F)cc3[nH]2)c1OC (racemic) [racemic pantoprazole]
[1]
  ulcer healing: 90-100%
[2]; intravenous
  intravenous dose required to reduce endogenous acid secretion by 50%: 1 to 3 µmol/kg
[2]; oral
  oral dose required to reduce endogenous acid secretion by 50%: 1 to 3 µmol/kg
[3]; mice, intravenous
  intravenous LD50: 975 µmol/kg
[3]; mouse, in vivo, po
  oral LD50: 1,893 μmol/kg
[4]
  finding in carcinogenicity study: hepatocellular neoplasia
[5]
  fasting serum gastrin levels: significantly elevated
[6]
  inhibition of hepatic drug metabolizing enzyme systems compared to omeprazole: weaker inhibitor
[7]
  chemical stability compared with omeprazole: more chemically stable
[8]; in vivo, po
  oral LD50: > 2,467 μmol/kg
[8]; intravenous
  intravenous LD50: 632 µmol/kg
[9]
  effective dose inhibiting exogenously stimulated acid secretion: less than 5 μmole/kg
[10]
  p.o./i.v. LD50 ratio: approximately 2
[11]
  calculated oral/intravenous (p.o./i.v.) ratio of the 50% doses: approximately 2

## COc1ccnc(C[S+]([O-])c2nc3ccc(OC(F)F)cc3[nH]2)c1OC (single isomer, unassigned; (+)) [(+) pantoprazole, (+) isomer of 5-(difluoromethoxy)-2-[[3,4-dimethoxy-2-pyridinyl)methyl]sulfinyl]-1H-benzimidazole]
[12]
  PKa: 8.2
